# Data reported in patent US20250326744A1, “PIPERAZINE DERIVATIVE OR SALT THEREOF, AND PHARMACEUTICAL COMPOSITION” (priority 2022, published 2025).
# Structures can show the parent of a compound that is named as a salt.
# Key:
# mexB (PA) strain = assay: Combinational effect with antibacterial agent against Pseudomonas aeruginosa (Test Examples 2 and 4): mexB (PA) strain with LVFX, TC or AZT at 1/4 MIC, EC99; format: cell-based; conditions: mexB (PA) strain, Test Example 4; for EC99, combinational effect with AZT, mexB (PA): combined with AZT at 1/4 MIC; for EC99, combinational effect with LVFX, mexB (PA): combined with LVFX at 1/4 MIC; for EC99, combinational effect with TC, mexB (PA): combined with TC at 1/4 MIC
# Procedure, shortened: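 EC99 denotes the minimum test-compound concentration (range 0–800 μM) that suppresses ≥99% of growth, measured by OD595, when combined with ¼ MIC levofloxacin (LVFX), tetracycline or aztreonam. The efflux-pump mutant mexB (PA), expressing mainly MexAB-OprM, was inoculated at 10^4–5 CFU/well in CAMHB for 16–20 h.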
# S-3769 strain = assay: Combinational effect with antibacterial agent against Pseudomonas aeruginosa (Test Examples 2 and 4): S-3769 strain with AMK or GM at 1/4 MIC, EC99; format: cell-based; conditions: S-3769 strain, Test Example 4; for EC99, combinational effect with AMK, S-3769 strain: combined with AMK at 1/4 MIC; for EC99, combinational effect with GM, S-3769 strain: combined with GM at 1/4 MIC
# Procedure, shortened: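 EC99, the lowest test-compound concentration inhibiting growth by ≥99% (OD595), was measured with aminoglycoside AMK or GM held at ¼ MIC. Strain S-3769, a MexY-overexpressing clinical isolate, was cultured in CAMHB at 10^4 to 5 CFU/well for 16–20 h; compound range 0–800 μM.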
Compound,"EC99, combinational effect with AZT, mexB (PA) (mexB (PA) strain)","EC99, combinational effect with LVFX, mexB (PA) (mexB (PA) strain)","EC99, combinational effect with TC, mexB (PA) (mexB (PA) strain)","EC99, combinational effect with AMK, S-3769 strain (S-3769 strain)","EC99, combinational effect with GM, S-3769 strain (S-3769 strain)"
"CCOc1cccc(F)c1CN1CCN(C(=O)[C@H](N)C2CCN(CCc3cc(Cl)ccc3-c3cc(N)cc(F)c3)CC2)CC1 [Example 558, Hydrobromide of (R)-2-amino-2-(1-(2-(3′-amino-4-chloro-5′-fluoro-[1,1-biphenyl]-2-yl)ethyl)piperidin-4-yl)-1-(4-(2-ethoxy-6-fluorobenzyl)piperazin-1-yl)ethan-1-one]",A (12.5 μM<EC99≤25 μM),S (EC99≤12.5 μM),A (12.5 μM<EC99≤25 μM),S (EC99≤12.5 μM),S (EC99≤12.5 μM)
"CCOc1cccc(F)c1CN1CCN(C(=O)[C@H](N)C2CCN(CCc3cc(Cl)ccc3-c3cc(N)ccc3F)CC2)CC1 [Example 559, Hydrobromide of (R)-2-amino-2-(1-(2-(5′-amino-4-chloro-2′-fluoro-[1,1-biphenyl]-2-yl)ethyl)piperidin-4-yl)-1-(4-(2-ethoxy-6-fluorobenzyl)piperazin-1-yl)ethan-1-one]",S (EC99≤12.5 μM),S (EC99≤12.5 μM),S (EC99≤12.5 μM),A (12.5 μM<EC99≤25 μM),S (EC99≤12.5 μM)
"CCOc1cccc(F)c1CN1CCN(C(=O)[C@H](N)C2CCN(CCc3cc(Cl)ccc3-c3cc(N)ccc3Cl)CC2)CC1 [Example 560, Hydrobromide of (R)-2-amino-2-(1-(2-(5′-amino-2′,4-dichloro-[1,1-biphenyl]-2-yl)ethyl)piperidin-4-yl)-1-(4-(2-ethoxy-6-fluorobenzyl)piperazin-1-yl)ethan-1-one]",S (EC99≤12.5 μM),S (EC99≤12.5 μM),S (EC99≤12.5 μM),A (12.5 μM<EC99≤25 μM),A (12.5 μM<EC99≤25 μM)
"CCOc1cccc(F)c1CN1CCN(C(=O)[C@H](N)C2CCN(CCc3cc(Cl)ccc3-c3cccc(NC)c3)CC2)CC1 [Example 561, Hydrobromide of (R)-2-amino-2-(1-(2-(4-chloro-3′-(methylamino)-[1,1-biphenyl]-2-yl)ethyl)piperidin-4-yl)-1-(4-(2-ethoxy-6-fluorobenzyl)piperazin-1-yl)ethan-1-one]",S (EC99≤12.5 μM),S (EC99≤12.5 μM),A (12.5 μM<EC99≤25 μM),S (EC99≤12.5 μM),S (EC99≤12.5 μM)
"CCOc1cccc(F)c1CN1CCN(C(=O)[C@H](N)C2CCN(CCc3cc(Cl)ccc3-c3cccc(N(C)C)c3)CC2)CC1 [Example 562, Hydrobromide of (R)-2-amino-2-(1-(2-(4-chloro-3′-(dimethylamino)-[1,1-biphenyl]-2-yl)ethyl)piperidin-4-yl)-1-(4-(2-ethoxy-6-fluorobenzyl)piperazin-1-yl)ethan-1-one]",A (12.5 μM<EC99≤25 μM),B (25 μM<EC99≤100 μM),B (25 μM<EC99≤100 μM),S (EC99≤12.5 μM),S (EC99≤12.5 μM)
"CCOc1cccc(F)c1CN1CCN(C(=O)[C@H](N)C2CCN(CCc3cc(Cl)ccc3-c3cnc(NC)c(C)c3)CC2)CC1 [Example 563, Hydrobromide of (R)-2-amino-2-(1-(5-chloro-2-(5-methyl-6-(methylamino)pyridine-3-yl)phenethyl)piperidin-4-yl)-1-(4-(2-ethoxy-6-fluorobenzyl)piperazin-1-yl)ethan-1-one]",C (100 μM<EC99),C (100 μM<EC99),C (100 μM<EC99),A (12.5 μM<EC99≤25 μM),A (12.5 μM<EC99≤25 μM)
"CSc1ccccc1CN1CCN(C(=O)[C@H](N)C2CCN(CCc3cc(Cl)ccc3-c3cc(N)cc(F)c3)CC2)CC1 [Example 564, Hydrobromide of (R)-2-amino-2-(1-(2-(3′-amino-4-chloro-5′-fluoro-[1,1-biphenyl]-2-yl)ethyl)piperidin-4-yl)-1-(4-(2-(methylthio)benzyl)piperazin-1-yl)ethan-1-one]",S (EC99≤12.5 μM),S (EC99≤12.5 μM),S (EC99≤12.5 μM),B (25 μM<EC99≤100 μM),B (25 μM<EC99≤100 μM)
"CNc1cccc(-c2ccc(Cl)cc2CCN2CCC([C@@H](N)C(=O)N3CCN(Cc4ccccc4SC)CC3)CC2)c1 [Example 565, Hydrobromide of (R)-2-amino-2-(1-(2-(4-chloro-3′-(methylamino)-[1,1-biphenyl]-2-yl)ethyl)piperidin-4-yl)-1-(4-(2-(methylthio)benzyl)piperazin-1-yl)ethan-1-one]",A (12.5 μM<EC99≤25 μM),S (EC99≤12.5 μM),S (EC99≤12.5 μM),B (25 μM<EC99≤100 μM),B (25 μM<EC99≤100 μM)
"CCOc1cccc(F)c1CN1CCN(C(=O)[C@H](N)C2CC[N+](C)(CCc3cc(Cl)ccc3-c3ccccc3)CC2)CC1 (stereo partly drawn) [Example 568, Hydrobromide of (R)-4-(1-amino-2-(4-(2-ethoxy-6-fluorobenzyl)piperazin-1-yl)-2-oxoethyl)-1-(2-(4-chloro-[1,1-biphenyl]-2-yl)ethyl)-1-methylpiperidin-1-ium bromide]",C (100 μM<EC99),C (100 μM<EC99),C (100 μM<EC99),S (EC99≤12.5 μM),S (EC99≤12.5 μM)
"CCOc1cccc(F)c1CN1CCN(C(=O)[C@H](N)C2CCC(N(C)Cc3ccccc3)CC2)CC1 (stereo partly drawn) [Example 570, Hydrobromide of (R)-2-amino-2-(4-(benzyl(methyl)amino)cyclohexyl)-1-(4-(2-ethoxy-6-fluorobenzyl)piperazin-1-yl)ethan-1-one]",C (100 μM<EC99),C (100 μM<EC99),C (100 μM<EC99),B (25 μM<EC99≤100 μM),B (25 μM<EC99≤100 μM)
"CCOc1cccc(F)c1CN1CCN(C(=O)[C@H](N)C2CCN(CCc3cc(Cl)ccc3-c3cccc(O)c3Cl)CC2)CC1 [Example 571, (R)-2-amino-2-(1-(2-(2′,4-dichloro-3′-hydroxy-[1,1′-biphenyl]-2-yl)ethyl)piperidin-4-yl)-1-(4-(2-ethoxy-6-fluorobenzyl)piperazin-1-yl)ethan-1-one]",S (EC99≤12.5 μM),S (EC99≤12.5 μM),S (EC99≤12.5 μM),S (EC99≤12.5 μM),S (EC99≤12.5 μM)
"CCOc1cccc(F)c1CN1CCN(C(=O)[C@H](N)C2CCN(CCc3cc(Cl)ccc3-c3cncc(O)c3)CC2)CC1 [Example 572, Hydrochloride of (R)-2-amino-2-(1-(5-chloro-2-(5-hydroxypyridin-3-yl)phenethyl)piperidin-4-yl)-1-(4-(2-ethoxy-6-fluorobenzyl)piperazin-1-yl) ethan-1-one]",B (25 μM<EC99≤100 μM),C (100 μM<EC99),B (25 μM<EC99≤100 μM),A (12.5 μM<EC99≤25 μM),A (12.5 μM<EC99≤25 μM)
"COc1cccc(O)c1CN1CCN(C(=O)[C@H](N)C2CCN(CCc3cc(Cl)ccc3-c3ccccc3)CC2)CC1 [Example 575, Hydrochloride of (R)-2-amino-2-(1-(2-(4-chloro-[1,1-biphenyl]-2-yl)ethyl)piperidin-4-yl)-1-(4-(2-hydroxy-6-methoxybenzyl)piperazin-1-yl) ethan-1-one]",S (EC99≤12.5 μM),S (EC99≤12.5 μM),A (12.5 μM<EC99≤25 μM),A (12.5 μM<EC99≤25 μM),A (12.5 μM<EC99≤25 μM)
"CCOc1cccc(F)c1CN1CCN(C(=O)[C@H](N)C2CCN(CCc3cc(Cl)ccc3-c3c(O)cccc3F)CC2)CC1 [Example 578, Hydrochloride of (2R)-2-amino-2-(1-(2-(4-chloro-2′-fluoro-6′-hydroxy-[1,1-biphenyl]-2-yl)ethyl)piperidin-4-yl)-1-(4-(2-ethoxy-6-fluorobenzyl)piperazin-1-yl) ethan-1-one]",B (25 μM<EC99≤100 μM),A (12.5 μM<EC99≤25 μM),B (25 μM<EC99≤100 μM),B (25 μM<EC99≤100 μM),B (25 μM<EC99≤100 μM)
